From US20140180549A1, “AUTOMATED MACHINE FOR SELECTIVE IN SITU MANIPULATION OF PLANTS” (The Arizona Board of Regents on Behalf of the University of …, priority 2011, published 2014)

Test system: Lettuce seedlings
Assay: Comparison of automated (machine-vision spray) and hand plant thinning
Type: in vivo
Settings: for Time (hand laborer with hand hoe to remove weeds and lettuce plants missed during thinning): after thinning operation; for Time (hand laborer with hand hoe to remove weeds and lettuce plants missed during thinning) / Plant Count (number of live plants per acre after thinning): letters = Duncan's groups (P = 0.05); for machine performance as compared to hand thinning / Plant Count (number of live plants per acre after thinning) / Plant Spacing (average of the measured distance to each live plant after thinning): lettuce seedlings; for machine performance as compared to hand thinning: liquid product sprayed by automated thinning machine; for Plant Count (number of live plants per acre after thinning) / Plant Spacing (average of the measured distance to each live plant after thinning): product sprayed by automated thinning machine; for Plant Spacing (average of the measured distance to each live plant after thinning): letters = Duncan's new multiple range test groups (P = 0.05)
Source text: The machine vision system used in this example is as described in Example 1, except the spray nozzles were enclosed within a “hooded” box assembly to protect sprayed treatment from wind effects.
Lettuce seedlings were thinned either using the machine vision system with the indicated treatments. The far left column lists the seven treatments tested, including hand thinning (control) and six treatments used by the automated thinning machine. Of these six, the automated thinning machine was evaluated spraying five different liquid products (two acids, two fertilizers, and one herbicide) known to kill plants and one mechanical method (knife blade—“hula hoe” design). The second column is the cost of the material sprayed for the flow rates and travel speeds used. The third column is the average of the measured distance to each live plant after thinning. The fourth column is the number of live plants per acre after thinning. The fifth column is the time required by a hand laborer to walk through the field with a hand hoe and remove weeds in the row between crop plants and any lettuce plants missed during the thinning operation.

`C[n+]1ccc(-c2cc[n+](C)cc2)cc1` [Paraquat, reference compound] was tested, and the “Time (hand laborer with hand hoe to remove weeds and lettuce plants missed during thinning)” value (from here on “Time”) was 2.8d hr/acre, the “machine performance as compared to hand thinning” value was “no difference” and the “Plant Count (number of live plants per acre after thinning)” value was 27,692b per/acre. The “Plant Spacing (average of the measured distance to each live plant after thinning)” value (shortened to “Plant Spacing”) was 9.6ab inch.
In the case of `O=S(=O)(O)O` [Sulfuric Acid (10%), Sulfuric Acid], the “Time” value is reported as 2.7d hr/acre, the “machine performance as compared to hand thinning” value is reported as “no difference” and the “Plant Count (number of live plants per acre after thinning)” value is reported as 26,758b per/acre. For the same compound, the “Plant Spacing” value was 10.2a inch.
With `CC(=O)O` [Acetic Acid (20%), Acetic Acid] the “Time” value was 3.0cd hr/acre, the “Plant Count (number of live plants per acre after thinning)” value was 30,181b per/acre and the “Plant Spacing” value was 8.9b inch.
